Experimental data taken from ChEMBL document CHEMBL1201862, “PubChem BioAssay data set” (2004).
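Protocol summary: plate cells (96-well), add compound at 5 concentrations, incubate 48 h, interpolate endpoints linearly. GI50 marks 50% less growth.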 The source made the active and inactive calls. Cut-off read from the data, not from the text of the source: active = GI50 up to about 1.1 µM and inactive = higher. Peptide text beside a SMILES is read from it. * marks the point of attachment. X27 = Clc1c(Cl)c(Cl)c(O*)c(Cl)c1Cl; Boc = CC(C)(C)OC(=O)*; OBn = c1ccc(CO*)cc1; Bn = c1ccc(C*)cc1

Columns and labels:
Assay in all cases: NCI anticancer screen, dose series, 48 h
HOP-62 = system: HOP-62
K562 = system: K562
SK-OV-3 = system: SK-OV-3
SW-620 = system: SW-620
UACC-257 = system: UACC-257
SN12C = system: SN12C
NCI-H23 = system: NCI-H23
U-251 = system: U-251
SF-295 = system: SF-295
NCI-H460 = system: NCI-H460
COLO 205 = system: COLO 205
Malme-3M = system: Malme-3M
Hs-578T = system: Hs-578T
HT-29 = system: HT-29
SK-MEL-28 = system: SK-MEL-28
CCRF-CEM = system: CCRF-CEM
HCT-15 = system: HCT-15
SF-539 = system: SF-539
HL-60 = system: HL-60
A498 = system: A498

SMILES	GI50 (HOP-62)	GI50 (K562)	GI50 (SK-OV-3)	GI50 (SW-620)	GI50 (UACC-257)	GI50 (SN12C)	GI50 (NCI-H23)	GI50 (U-251)	GI50 (SF-295)	GI50 (NCI-H460)	GI50 (COLO 205)	GI50 (Malme-3M)	GI50 (Hs-578T)	GI50 (HT-29)	GI50 (SK-MEL-28)	GI50 (CCRF-CEM)	GI50 (HCT-15) [µM]	GI50 (SF-539)	GI50 (HL-60)	GI50 (A498)
O=C1CC(O)c2c1csc2Br (centres undefined)	73.6 µM (inactive)	25.6 µM (inactive)	53.8 µM (inactive)	15.3 µM (inactive)	10.7 µM (inactive)	20.7 µM (inactive)	21.9 µM (inactive)	19.8 µM (inactive)	60.7 µM (inactive)	25.7 µM (inactive)	41.3 µM (inactive)	30.8 µM (inactive)	26.6 µM (inactive)	33.3 µM (inactive)	17.8 µM (inactive)	25.2 µM (inactive)	18.5	–	–	–
Cc1nc2cccc(F)c2c(=O)n1-c1nnc(C(F)(F)F)s1	> 10 µM (inactive)	> 10 µM (inactive)	> 10 µM (inactive)	> 10 µM (inactive)	> 10 µM (inactive)	> 10 µM (inactive)	> 10 µM (inactive)	> 10 µM (inactive)	> 10 µM (inactive)	> 10 µM (inactive)	> 10 µM (inactive)	–	> 10 µM (inactive)	> 10 µM (inactive)	> 10 µM (inactive)	> 10 µM (inactive)	> 10	> 10 µM (inactive)	> 10 µM (inactive)	–
NNC(=O)CNC(=O)CSc1nnc(COc2ccc(Cl)cc2)n1-c1ccccc1	> 100 µM (inactive)	> 100 µM (inactive)	> 100 µM (inactive)	> 100 µM (inactive)	> 100 µM (inactive)	> 100 µM (inactive)	> 100 µM (inactive)	> 100 µM (inactive)	> 100 µM (inactive)	> 100 µM (inactive)	> 100 µM (inactive)	> 100 µM (inactive)	–	> 100 µM (inactive)	> 100 µM (inactive)	60.5 µM (inactive)	> 100	> 100 µM (inactive)	> 100 µM (inactive)	> 100 µM (inactive)
COc1ccc(-c2c(C(C)=O)c(-c3ccccc3)n(C3OC(COC(C)=O)C(OC(C)=O)C(OC(C)=O)C3OC(C)=O)c(=S)c2C#N)cc1 (centres undefined)	> 100 µM (inactive)	> 100 µM (inactive)	> 100 µM (inactive)	> 100 µM (inactive)	> 100 µM (inactive)	> 100 µM (inactive)	> 100 µM (inactive)	> 100 µM (inactive)	> 100 µM (inactive)	> 100 µM (inactive)	> 100 µM (inactive)	> 100 µM (inactive)	–	> 100 µM (inactive)	> 100 µM (inactive)	> 100 µM (inactive)	> 100	> 100 µM (inactive)	> 100 µM (inactive)	> 100 µM (inactive)
O=C(NCc1ccccc1)c1cc2ccc(O)c(O)c2cn1	21.3 µM (inactive)	33.8 µM (inactive)	> 100 µM (inactive)	21.4 µM (inactive)	15.6 µM (inactive)	17.6 µM (inactive)	12.1 µM (inactive)	23.3 µM (inactive)	16.9 µM (inactive)	21.7 µM (inactive)	32.1 µM (inactive)	16.7 µM (inactive)	–	44.1 µM (inactive)	16.4 µM (inactive)	32.1 µM (inactive)	26.7	18.2 µM (inactive)	18.8 µM (inactive)	> 100 µM (inactive)
Cc1c2c(cc3c1C(=O)C(=O)C1=C3OC[C@@H]1C)C(C)(C)CCC2	21.5 µM (inactive)	14.9 µM (inactive)	41.9 µM (inactive)	15.1 µM (inactive)	15.1 µM (inactive)	16.8 µM (inactive)	14.8 µM (inactive)	16.2 µM (inactive)	14.5 µM (inactive)	13.7 µM (inactive)	7.29 µM (inactive)	15.6 µM (inactive)	–	16.6 µM (inactive)	14 µM (inactive)	18 µM (inactive)	14.2	16.3 µM (inactive)	10.3 µM (inactive)	22.3 µM (inactive)
COc1cc(C2c3cc4c(cc3[C@H](NC(=O)c3cccs3)C3COC(=O)[C@H]23)OCO4)cc(OC)c1OC (some centres undefined)	< 0.0144 µM (active)	< 0.0156 µM (active)	0.027 µM (active)	< 0.016 µM (active)	–	< 0.0187 µM (active)	< 0.0143 µM (active)	< 0.0148 µM (active)	< 0.01 µM (active)	0.0172 µM (active)	0.0109 µM (active)	92.3 µM (inactive)	–	0.012 µM (active)	0.0708 µM (active)	< 0.0179 µM (active)	< 0.0214	< 0.01 µM (active)	< 0.01 µM (active)	0.012 µM (active)
CC(C)CC(NC(=O)C(CCC(=O)OCc1ccccc1)NC(=O)OC(C)(C)C)C(=O)NC(COCc1ccccc1)C(=O)NC(Cc1ccccc1)C(=O)Oc1c(Cl)c(Cl)c(Cl)c(Cl)c1Cl (centres undefined) (Boc-E(OBn)LS(Bn)F-X27; configuration not given here)	–	–	28.5 µM (inactive)	> 100 µM (inactive)	28.2 µM (inactive)	29.1 µM (inactive)	16.1 µM (inactive)	18.5 µM (inactive)	25.5 µM (inactive)	27.2 µM (inactive)	26.2 µM (inactive)	33.1 µM (inactive)	25.1 µM (inactive)	35.6 µM (inactive)	19.2 µM (inactive)	26.7 µM (inactive)	25.8	–	–	–
